This experiment deals with AMP-activated protein kinase (AMPK). The experiment can be described thus: ADP Quest assay for AMPK activators. The settings on record: fold of AMPK activation to phosphorylate SAMS peptide without and with an activator at the concentration of 30 µM. The class given is biochemical. Further details: key: fold AMPK activation with vs without activator at 30 µM. In short, it runs like this:
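AMPK phosphorylation of SAMS peptide with ATP monitored kinetically at room temperature by ADP Quest fluorescence (ex 530/em 590 nm), reaction started with enzyme. Compounds tested […] in 2-fold dilutions, AMP as reference. E30 is fold activation at 30 µM activator versus none.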
Consider `CC1(C)Cc2cc(C(=O)NS(C)(=O)=O)cc(Cl)c2NC1c1cccc(N2CCOCC2)c1` (centres unmarked) [Example 115, N-[8-Chloro-3,3-dimethyl-2-(3-morpholin-4-yl-phenyl)-1,2,3,4-tetrahydro-quinoline-6-carbonyl]-methanesulfonamide], for which the E30 is reported as 1.2.
With `CC1(C)Cc2cc(C(=O)NS(C)(=O)=O)ccc2NC1c1cccc(N2CCOC2=O)c1` (centres unmarked) [Example 110, N-{3,3-Dimethyl-2-[3-(2-oxo-oxazolidin-3-yl)-phenyl]-1,2,3,4-tetrahydro-quinoline-6-carbonyl}-methanesulfonamide], the E30 worked out at 1.24.
Next, `CC1(C)Cc2cc(C(=O)O)ccc2NC1c1ccc(NC(=O)C2CCC2)cc1` (centres unmarked) [Example 215, 2-(4-(Cyclobutanecarboxamido)phenyl)-3,3-dimethyl-1,2,3,4-tetrahydroquinoline-6-carboxylic acid]: 1.38; `CC1(C)Cc2cc(C(=O)O)ccc2NC1c1cccc(C(=O)N2CCCC2)c1` (centres unmarked) [Example 171, 3,3-Dimethyl-2-(3-(pyrrolidine-1-carbonyl)phenyl)-1,2,3,4-tetrahydroquinoline-6-carboxylic acid]: 1.36; `CNC(=O)C(C)(C)Nc1cccc(C2Nc3ccc(C(=O)NS(C)(=O)=O)cc3CC2(C)C)c1` (centres unmarked) [Example 39, 2-[3-(6-Methanesulfonylaminocarbonyl-3,3-dimethyl-1,2,3,4-tetrahydro-quinolin-2-yl)-phenylamino]-2,N-dimethyl-propionamide]: 1.36.
Next, `CC1(C)Cc2c(ccc(F)c2C(=O)NS(C)(=O)=O)NC1c1cccc(N2CCOCC2)c1` (centres unmarked) [Example 118, N-[6-Fluoro-3,3-dimethyl-2-(3-morpholin-4-yl-phenyl)-1,2,3,4-tetrahydro-quinoline-5-carbonyl]-methanesulfonamide]: 1.64; `CN1CCN(c2cccc(C3Nc4ccc(C(=O)O)cc4CC3(C)C)c2)C1=O` (centres unmarked) [Example 16, 3,3-Dimethyl-2-[3-(3-methyl-2-oxo-imidazolidin-1-yl)-phenyl]-1,2,3,4-tetrahydro-quinoline-6-carboxylic acid]: 1.59; `CC1(C)Cc2cc(C(=O)NS(=O)(=O)C3CC3)ccc2NC1c1cccc(N2C(=O)OC[C@@H]2Cc2ccccc2)c1` (stereo partly drawn) [Example 132, Cyclopropanesulfonic acid {2-[3-((S)-4-benzyl-2-oxo-oxazolidin-3-yl)-phenyl]-3,3-dimethyl-1,2,3,4-tetrahydro-quinoline-6-carbonyl}-amide]: 1.23.
`CC1(C)Cc2cc(C(=O)O)ccc2NC1c1ccc(NS(=O)(=O)c2ccccc2)cc1` (centres unmarked) [Example 168, 3,3-Dimethyl-2-(4-(phenylsulfonamido)phenyl)-1,2,3,4-tetrahydroquinoline-6-carboxylic acid]: the E30 is 1.39.
Next, `CC(C)Oc1ccc(-c2cccc(C3Nc4ccc(C(=O)NS(=O)(=O)C5CC5)cc4CC3(C)C)c2)cc1` (centres unmarked) [Example 86, Cyclopropanesulfonic acid [2-(4′-isopropoxy-biphenyl-3-yl)-3,3-dimethyl-1,2,3,4-tetrahydro-quinoline-6-carbonyl]-amide]: 2.74.
Next, `CCS(=O)(=O)NC(=O)c1ccc2c(c1)CC(C)(C)C(c1cccc(N3CCOCC3)c1)N2` (centres unmarked) [Example 98, Ethanesulfonic acid [3,3-dimethyl-2-(3-morpholin-4-yl-phenyl)-1,2,3,4-tetrahydro-quinoline-6-carbonyl]-amide]: 1.44; `CN(C)CCNC(=O)c1cccc(C2Nc3ccc(C(=O)O)cc3CC2(C)C)c1` (centres unmarked) [Example 203, 2-(3-(2-(Dimethylamino)ethylcarbamoyl)phenyl)-3,3-dimethyl-1,2,3,4-tetrahydroquinoline-6-carboxylic acid]: 1.53; `CC1(C)Cc2cc(C(=O)O)ccc2NC1c1ccccc1NC1(C(=O)O)CC1` (centres unmarked) [Example 164, 2-[2-(1-Carboxy-cyclopropylamino)-phenyl]-3,3-dimethyl-1,2,3,4-tetrahydro-quinoline-6-carboxylic acid]: 1.78.
In the case of `Cc1ccc(N2CCN(c3cccc(C4Nc5ccc(C(=O)NS(C)(=O)=O)cc5CC4(C)C)c3)CC2)c(C)c1` (centres unmarked) [Example 90, N-(2-{3-[4-(2,4-Dimethyl-phenyl)-piperazin-1-yl]-phenyl}-3,3-dimethyl-1,2,3,4-tetrahydro-quinoline-6-carbonyl)-methanesulfonamide], the E30 is 1.44.
Next, `CN1CCC(NC(=O)c2cccc(C3Nc4ccc(Cl)cc4CC3(C)C)c2)C1` (centres unmarked) [Example 225, 3-(6-Chloro-3,3-dimethyl-1,2,3,4-tetrahydroquinolin-2-yl)-N-(1-methylpyrrolidin-3-yl)benzamide]: 1.64; `CC1(C)Cc2cc(C(=O)NS(C)(=O)=O)ccc2NC1c1cccc(C(=O)Nc2ccccc2)c1` (centres unmarked) [Example 9, 3-(6-Methanesulfonylaminocarbonyl-3,3-dimethyl-1,2,3,4-tetrahydro-quinolin-2-yl)-N-phenyl-benzamide]: 1.28.
The compound `CC1(C)Cc2cc(C(=O)O)ccc2NC1c1cccc(NC(=O)c2ccccc2)c1` (centres unmarked) [Example 12, 2-(3-Benzoylamino-phenyl)-3,3-dimethyl-1,2,3,4-tetrahydro-quinoline-6-carboxylic acid] displayed an E30 of 1.22.
`CC(C)(Nc1cccc(C2Nc3ccc(C(=O)O)cc3CC2(C)C)c1)C(=O)O` (centres unmarked) [Example 15, 2-[3-(1-Carboxy-1-methyl-ethylamino)-phenyl]-3,3-dimethyl-1,2,3,4-tetrahydro-quinoline-6-carboxylic acid] displayed an E30 of 3.59.
The value for `CC1(C)Cc2cc(C(=O)O)ccc2NC1c1ccc(Cl)c(NC(=O)C2CCCCC2)c1` (centres unmarked) [Example 195, 2-(4-Chloro-3-(cyclohexanecarboxamido)phenyl)-3,3-dimethyl-1,2,3,4-tetrahydroquinoline-6-carboxylic acid] was 1.25.
The value for `CC(C)(Nc1cccc(C2Nc3ccc(C#N)cc3CC2(C)C)c1)C(=O)O` (centres unmarked) [Example 38, 2-[3-(6-Cyano-3,3-dimethyl-1,2,3,4-tetrahydro-quinolin-2-yl)-phenylamino]-2-methyl-propionic acid] was 2.12.
Next, `CC(C)(Oc1cccc(C2Nc3ccc(C(=O)O)cc3CC2(C)C)c1)C(=O)O` (centres unmarked) [Example 233, 2-(3-(2-Carboxypropan-2-yloxy)phenyl)-3,3-dimethyl-1,2,3,4-tetrahydroquinoline-6-carboxylic acid]: 1.29; `CC1(C)Cc2cc(C(=O)O)ccc2NC1c1cccc(NC(=O)c2ccccn2)c1` (centres unmarked) [Example 4, 3,3-Dimethyl-2-{3-[(pyridine-2-carbonyl)-amino]-phenyl}-1,2,3,4-tetrahydro-quinoline-6-carboxylic acid]: 1.33.
`CC(C)(C)c1ccc(-c2cc(F)cc(C3Nc4ccc(C(=O)NS(C)(=O)=O)cc4CC3(C)C)c2)cc1` (centres unmarked) [Example 49, N-[2-(4′-tert-Butyl-5-fluoro-biphenyl-3-yl)-3,3-dimethyl-1,2,3,4-tetrahydro-quinoline-6-carbonyl]-methanesulfonamide]: the E30 was found to be 2.25.
For `CC1(C)Cc2cc(C(=O)NS(C)(=O)=O)ccc2NC1c1cc(F)cc(N2CCCC2=O)c1` (centres unmarked) [Example 77, N-{2-[3-fluoro-5-(2-oxo-pyrrolidin-1-yl)-phenyl]-3,3-dimethyl-1,2,3,4-tetrahydro-quinoline-6-carbonyl}-methanesulfonamide], the E30 came out at 1.42.
Next, `CC1(C)Cc2cc(C(=O)O)ccc2NC1c1cc(Cl)cc(N2CCOCC2)c1` (centres unmarked) [Example 55, 2-(3-Chloro-5-morpholin-4-yl-phenyl)-3,3-dimethyl-1,2,3,4-tetrahydro-quinoline-6-carboxylic acid]: 1.28.
`CC1(C)Cc2c(ccc(F)c2C(=O)NS(=O)(=O)C2CC2)NC1c1cccc(N2CCOCC2)c1` (centres unmarked) [Example 117, Cyclopropanesulfonic acid [6-fluoro-3,3-dimethyl-2-(3-morpholin-4-yl-phenyl)-1,2,3,4-tetrahydro-quinoline-5-carbonyl]-amide] registered an E30 of 1.7.
The value for `CNC(=O)c1cccc(C2Nc3ccc(C(=O)O)cc3CC2(C)C)c1` (centres unmarked) [Example 187, 3,3-Dimethyl-2-(3-(methylcarbamoyl)phenyl)-1,2,3,4-tetrahydroquinoline-6-carboxylic acid] was 1.38; that for `CC1(C)Cc2cc(C(=O)NS(=O)(=O)C3CC3)ccc2NC1c1cc(N2CCOCC2)ccc1F` (centres unmarked) [Example 54, Cyclopropanesulfonic acid [2-(2-fluoro-5-morpholin-4-yl-phenyl)-3,3-dimethyl-1,2,3,4-tetrahydro-quinoline-6-carbonyl]-amide] was 1.28.
The value for `CC1(C)Cc2cc(C(=O)O)ccc2NC1c1cccc(N2CCN(c3ccc(Cl)cc3)CC2)c1` (centres unmarked) [Example 87, 2-{3-[4-(4-Chloro-phenyl)-piperazin-1-yl]-phenyl}-3,3-dimethyl-1,2,3,4-tetrahydro-quinoline-6-carboxylic acid] was 1.3; that for `CC1(C)Cc2cc(C(=O)O)ccc2NC1c1ccc(F)c(NS(=O)(=O)c2cccc(F)c2)c1` (centres unmarked) [Example 206, 2-(4-Fluoro-3-(3-fluorophenylsulfonamido)phenyl)-3,3-dimethyl-1,2,3,4-tetrahydroquinoline-6-carboxylic acid] was 1.33.
Next, `CN(C)c1cc(F)cc(C2Nc3ccc(C(=O)NS(C)(=O)=O)cc3CC2(C)C)c1` (centres unmarked) [Example 50, N-[2-(3-Dimethylamino-5-fluoro-phenyl)-3,3-dimethyl-1,2,3,4-tetrahydro-quinoline-6-carbonyl]-methanesulfonamide]: 1.61.
`CN1CCC(NC(=O)c2cccc(C3Nc4ccc(C(=O)O)cc4CC3(C)C)c2)C1` (centres unmarked) [Example 165, 3,3-dimethyl-2-(3-(1-methylpyrrolidin-3-ylcarbamoyl)phenyl)-1,2,3,4-tetrahydroquinoline-6-carboxylic acid] showed an E30 of 1.53.

Values taken from patent US8586747B2, “3,3-dimethyl tetrahydroquinoline derivatives” (Hoffmann-La Roche Inc., priority 2010, dated 2013).
